Source: a melting point compilation (Tetko et al.)

SMILES | melting point [°C]
COC(=O)C(Cl)C(C)=O (stereo not given) | -33
Cc1c(Br)c(Br)c(Br)c(Br)c1Br | 288
O=C(Nc1ccc(Br)cc1Br)C(F)(F)C(F)(F)C(F)(F)C(F)(F)C(F)(F)C(F)(F)C(F)(F)C(F)(F)F | 95
N#CCS(=O)(=O)Cc1cccc(C(F)(F)F)c1 | 119 to 121
CCC(C(=O)NC(=O)NC(C)=O)c1ccccc1 (stereo not given) | 100
O=C1O[C@H](C(Cl)(Cl)Cl)N2CCC[C@@H]12 (relative stereo) | 110
COc1ccc(-c2cc(=O)c3ccccc3o2)cc1OC | 155
CC1(C)N=C(N)N=C(N)N1c1ccc(Cl)cc1 | 146
Cc1nc(-c2ccc(C#N)cc2)cs1 | 154
Ic1cccc(CN2CCOCC2)c1 | 32 to 34
Nc1ccccc1OCCN1CCOCC1 | 41 to 42
N#CCCNCC(=O)O | 188 to 193
O=C1[C@H]2CC3=C(CC=CC3)C[C@H]2C(=O)[C@H]2CC3=C(CC=CC3)C[C@@H]12 | 300 to 302
CCOC(=O)c1ncoc1-c1ccccc1 | 32 to 35
NC1(C(=O)O)CC1 | 257
O=Cc1ccccn1 | -21
CCCCc1ccc(/N=N/c2ccc(OC)cc2)cc1 | 31 to 48
C/C(CC(C)c1ccc(C)cc1)=N\NC(N)=O (stereo not given) | 146
CCCCCCC(=O)CCC | -9
NNC(=O)c1ccc(N)c(N)c1 | 149
N#CCC(=O)c1ccc(N)cc1 | 159
C#CC(C)(CC)OC(=O)c1ccccc1C(=O)O (stereo not given) | 97

SMILES | melting point [°C]
O=C(C1=NOC2C(=O)N(c3ccccc3[N+](=O)[O-])C(=O)C12)c1ccc2ccccc2c1 (stereo not given) | 176
CC(C)C1OC(=O)C2CCC1(C)OC2(C)C (stereo not given) | 120
CN(C)c1ccc(C2Nc3nc(C(F)(F)F)nn3C(N)=C2C#N)cc1 (stereo not given) | 164
COc1ccccc1Oc1ccc(C(F)(F)F)cc1N | 28
NC(=O)c1cc(Cl)ccc1N | 171
Cc1ccc(C2C(C#N)=C(N)N3C(=C2C#N)Sc2ccccc23)cc1 (stereo not given) | 200 to 202
COc1ccccc1Oc1ccccc1OC | 79.5
COc1ccc(C(O)(c2ccc(OC)cc2)c2ccc(OC)cc2)cc1 | 79
C=CCOC(=O)N1CCN(C(=O)OCC2c3ccccc3-c3ccccc32)C(C(=O)O)C1 (stereo not given) | 63
CCOO | -100
Oc1ccc(-n2ccnc2)cc1 | 204 to 206
NNC(=O)N1N=C(c2ccccc2)CCC1=O | 166 to 168
CO[C@]12C(=O)CCc3cccc(c31)Oc1ccc3ccccc3c12 | 154
O=Cc1ncc[nH]1 | 209
Nc1ccc(C(F)(F)F)nc1 | 39 to 40
CCOC(=O)C(C#N)=CNc1ccccc1Cl | 165 to 167
C=Cc1cc(C)ccc1C | -35
NC(=O)Nc1ccc(Cl)cc1 | 206
CCOC(=O)Nc1cccc([N+](=O)[O-])c1[N+](=O)[O-] | 102 to 103
CC(=O)OC(OC(C)=O)c1ccco1 | 53.3
C=CCCCC=C | -129
COc1ccc(C=C2SC(=S)N(CN3CCCCC3)C2=O)cc1 | 222 to 223

SMILES | melting point [°C]
N#CC1CNc2ccccc2O1 (stereo not given) | 63
COc1cc(NS(C)(=O)=O)ccc1Nc1c2ccccc2nc2ccccc12 | 235
NCCSS(=O)(=O)O | 191 to 194
OCCCCCCCCCCCCBr | 34
CC(C)Nc1ccc(C(F)(F)F)cc1[N+](=O)[O-] | 103 to 105
O=C(O)CC(F)(F)C(=O)O | 142
O=C(O)c1ccc2c(c1)C(=O)c1ccccc1C2=O | 291
O=S(=O)(Cl)c1ccc(-c2nsc(Cl)n2)s1 | 71 to 74
NC(=O)C1=CNCCC1 | 203 to 205
Nc1ccc(C(F)(F)F)cc1[N+](=O)[O-] | 107
CCOC(=O)c1csc(Cn2cnc(Cl)c2Cl)n1 | 126 to 129
CCCCC1C(=O)NN(c2ccccc2)C1=O (stereo not given) | 102
CCOc1ccc(-c2nnc3n2NC(c2ccc(OC)cc2)S3)cc1 (stereo not given) | 198 to 200
COc1ccccc1NC(=S)c1cc(C(C)(C)C)c(O)c(C(C)(C)C)c1 | 185 to 186
O=C(NC(=S)Nc1ccccn1)c1ccccc1 | 144 to 147
CC1(C)CCCC(O)C1 (stereo not given) | 11.5
COC(=O)c1c(C)n[nH]c1C | 83
CCCCNC(=O)C(C(F)(F)F)C(F)(F)F | 94
CON(C)C(=O)C=P(c1ccccc1)(c1ccccc1)c1ccccc1 | 183
CNN | -21
CCCSc1ncccc1C(=O)Cl | 43.4
